Molecules are shown by their SMILES.

The values that follow come from patent US20140005070A1, “MARKERS ASSOCIATED WITH CYCLIN-DEPENDENT KINASE INHIBITORS” (Novartis AG, priority 2011, published 2014).

This assay relates to PD markers MEPCE, MCL, MYC, HEXIM, LARP7 and WHSC2. Briefly: Affymetrix U133-Plus-2 microarray gene expression profiling of CDKI treated cell lines. The format is cell-based. The note with it: A375 cells, FIG. 2. Here is the method: Five cell lines were analyzed: NCI-H929, a multiple myeloma cell line (ATCC Cat. # CRL-9068); NCI-H441, a lung papillary adenocarcinoma cell line (ATCC Cat. # HTB-174); A375, a melanoma cell line (ATCC Cat. # CRL-1619); A2058, a melanoma cell line (ATCC Cat. #CRL-1147) and U-87-MG, a glioblastoma cell line (ATCC Cat. #HTB-14). Cell lines were grown in the medium recommended by ATCC and treated as follows:
NCI-H441 and A375: 0 timepoint: Untreated, harvested when compound is added to the other plates.
2 hours: DMSO, 200 nM CKDI(8) or 500 nM CKDI(8) or 500 nM CKDI(7) (3 plates each, total 12 plates).
8 hours: DMSO, 200 nM CKDI(8) or 500 nM CKDI (8) or 500 nM CKDI(7) (3 plates each, total 12 plates).
16 hours: DMSO, 200 nM CKDI(8) or 500 nM CKDI(8) or 500 nM CKDI(7) (3 plates each, total 12 plates). […]
An average expression level was determined for each probeset at each time-point and treatment condition by computing the geomean expression level across replicate tumors. […] The p-value was determined by a two-tailed t-test assuming unequal variances (Satterwaithe's approximation). […]
This is shown in FIG. 2, where A375 cells that are sensitive to CDKI were treated with CDKI(7) and the reduction of gene expression was determined at 2, 8 and 16 hours of treatment.

Turning to `O=C(Nc1cc(-c2cccc(NCC3CCOCC3)n2)c(Cl)cn1)[C@@H]1CCCNC1` [CDKI(7)], the “expression of the PD markers MEPCE, MCL, MYC, HEXIM, LARP7 and WHSC2” value (microarray, 2, 8 and 16 hours of treatment) is recorded as “reduced”. Also, the “time point of greatest amount of reduction of MEPCE expression” value (microarray) was 8 h.
